Laboratory results as given in patent publication US20220388919A1, “UREA-BASED BLEND COMPOSITION AND METHOD FOR THE MANUFACTURE THEREOF” (Yara International ASA, priority 2019, published 2022).

Test: nBTPT recovered after storage in bags (HPLC, CEN 15688-2007)
Assay type: physicochemical
Details: bagged conditions without the presence of a head space (exclusion of moisture and atmospheric gasses)
Protocol: For lab scale experiments, 1.2 kg of solid UAS fertilizer material was added to a lab scale drum. In a next step, the nBTPT/stabilizer material was slowly added. A residence time of 10 minutes was applied, and the rotating speed of the drum was consequently the same in each experiment. In case a moisture-repellent coating was added, a nebulizer was used and depending on the order of addition, the moisture-repellent coating was added before or after addition of the nBTPT material. Before use, the moisture-repellent coating was preheated to 80° C. Larger scale experiments with amounts up to 40 kg of fertilizer material were performed in a concrete mixer.
Optionally, a zinc sulphate, anhydrous zinc sulphate or monohydrate zinc sulphate, was coated on the particles (0.46 weight %). […] Product samples were taken at different times from a bag and the amount of nBTPT still present was measured by HPLC according to the procedure CEN 15688-2007, the results are presented in FIG. 1. […]
Urea particles containing 46 weight % of nitrogen was coated with 0.046 weight % of nBTPT, as urease inhibitor, and an inorganic stabilizer, magnesium oxide (0.023 weight %). […] Product samples were taken at different times and the amount of nBTPT still present was measured by HPLC according to the procedure CEN 15688-2007, the results are presented in FIG. 5. […]

Question: For `CCCCNP(N)(N)=S` [nBTPT, N-(n-butyl) thiophosphoric triamide], which “stability of the urease inhibitor” value is on record?
Answer: The value was “further increased”.
